Legend:
Cytochrome P450 3A4 = Cytochrome P450 3A4 (Homo sapiens, UniProt P08684); conditions: bti-tn-5b1-4; note: in other assays of this panel Not Active means under 50% inhibition at 10 µM
[1] = biological target: C-C chemokine receptor type 5 (Homo sapiens, UniProt P51681); assay type: cell membranes, HEK293, Membrane; conditions: hek293; note: in other assays of this panel Not Active means under 50% inhibition at 10 µM
[2] = biological target: T1, Muscarinic acetylcholine receptor M5 (Homo sapiens, UniProt P08912); assay type: cell membranes, CHO-K1, Membrane; conditions: cho-k1; note: in other assays of this panel Not Active means under 50% inhibition at 10 µM
T1 sequence (P08912 whole entry): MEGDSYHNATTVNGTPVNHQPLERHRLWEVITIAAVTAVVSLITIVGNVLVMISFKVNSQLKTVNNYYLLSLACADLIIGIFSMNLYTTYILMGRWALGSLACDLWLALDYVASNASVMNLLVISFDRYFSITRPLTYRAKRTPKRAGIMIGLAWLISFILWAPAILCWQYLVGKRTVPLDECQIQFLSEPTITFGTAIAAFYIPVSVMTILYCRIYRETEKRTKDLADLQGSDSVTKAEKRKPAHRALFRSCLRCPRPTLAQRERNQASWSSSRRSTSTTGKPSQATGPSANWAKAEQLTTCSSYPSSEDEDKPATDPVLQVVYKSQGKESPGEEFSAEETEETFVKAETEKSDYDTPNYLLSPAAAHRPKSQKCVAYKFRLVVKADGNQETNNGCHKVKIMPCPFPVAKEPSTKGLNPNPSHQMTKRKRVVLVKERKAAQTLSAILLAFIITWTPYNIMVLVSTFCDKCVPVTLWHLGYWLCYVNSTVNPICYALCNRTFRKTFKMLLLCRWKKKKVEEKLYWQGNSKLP

[3] = biological target: Vascular endothelial growth factor receptor 1 (Homo sapiens, UniProt P17948); assay type: cell-based; conditions: huvec; note: in other assays of this panel Not Active means under 50% inhibition at 10 µM
Nitric oxide synthase 1 = Nitric oxide synthase 1 (Rattus norvegicus, UniProt P29476); assay type: tissue-based, Cerebellum; note: in other assays of this panel Not Active means under 50% inhibition at 10 µM
[4] = DRUGMATRIX: Serotonin (5-Hydroxytryptamine) 5-HT3 radioligand binding (ligand: [3H] GR-65630); assay type: cell membranes, Membrane; conditions: hek293; Not Active = under 50% inhibition at 10 µM
Estrogen receptor = biological target: T2, Estrogen receptor (Homo sapiens, UniProt P03372); conditions: sf9; note: in other assays of this panel Not Active means under 50% inhibition at 10 µM
T2 sequence (P03372 whole entry): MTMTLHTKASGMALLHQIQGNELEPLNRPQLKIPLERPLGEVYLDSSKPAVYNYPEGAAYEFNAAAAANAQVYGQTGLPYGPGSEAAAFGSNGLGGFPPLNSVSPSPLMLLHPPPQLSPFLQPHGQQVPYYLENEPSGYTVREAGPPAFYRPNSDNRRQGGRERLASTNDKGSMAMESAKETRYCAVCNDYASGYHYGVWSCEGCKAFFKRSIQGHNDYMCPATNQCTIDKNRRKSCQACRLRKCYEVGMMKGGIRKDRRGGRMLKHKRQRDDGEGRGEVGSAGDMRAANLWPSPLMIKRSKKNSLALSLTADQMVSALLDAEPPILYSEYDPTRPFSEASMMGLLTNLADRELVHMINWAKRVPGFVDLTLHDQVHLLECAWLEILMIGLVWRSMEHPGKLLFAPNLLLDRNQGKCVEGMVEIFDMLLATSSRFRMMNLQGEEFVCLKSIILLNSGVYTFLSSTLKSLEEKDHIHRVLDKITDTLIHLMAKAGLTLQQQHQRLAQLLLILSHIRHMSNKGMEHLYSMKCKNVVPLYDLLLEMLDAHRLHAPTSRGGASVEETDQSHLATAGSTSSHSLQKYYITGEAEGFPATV

Chain of C-C chemokine receptor type 5 (P51681 whole entry): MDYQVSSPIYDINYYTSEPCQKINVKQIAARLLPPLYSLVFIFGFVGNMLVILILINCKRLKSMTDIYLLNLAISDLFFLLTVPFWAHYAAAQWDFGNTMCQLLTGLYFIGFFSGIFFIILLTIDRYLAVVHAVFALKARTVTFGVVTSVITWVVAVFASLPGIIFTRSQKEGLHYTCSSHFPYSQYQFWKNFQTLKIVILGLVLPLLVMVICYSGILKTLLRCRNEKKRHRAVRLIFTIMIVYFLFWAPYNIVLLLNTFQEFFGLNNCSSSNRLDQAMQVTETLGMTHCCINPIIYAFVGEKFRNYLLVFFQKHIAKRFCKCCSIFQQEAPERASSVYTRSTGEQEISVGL
Chain of Cytochrome P450 3A4 (P08684 whole entry): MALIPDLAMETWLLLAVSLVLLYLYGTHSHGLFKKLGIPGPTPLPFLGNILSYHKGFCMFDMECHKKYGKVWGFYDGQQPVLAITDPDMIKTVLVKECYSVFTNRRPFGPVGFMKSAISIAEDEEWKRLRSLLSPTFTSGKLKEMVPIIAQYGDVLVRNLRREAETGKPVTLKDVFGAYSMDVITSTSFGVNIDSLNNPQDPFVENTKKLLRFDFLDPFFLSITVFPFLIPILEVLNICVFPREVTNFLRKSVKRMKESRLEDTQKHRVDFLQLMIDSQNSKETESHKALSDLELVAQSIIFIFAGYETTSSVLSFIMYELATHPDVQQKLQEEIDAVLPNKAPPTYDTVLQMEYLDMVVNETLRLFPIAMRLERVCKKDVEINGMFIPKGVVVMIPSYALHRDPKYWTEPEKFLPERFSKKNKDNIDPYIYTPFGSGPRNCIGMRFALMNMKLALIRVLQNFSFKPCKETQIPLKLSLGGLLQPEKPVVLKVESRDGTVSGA
Chain of Nitric oxide synthase 1 (P29476 whole entry): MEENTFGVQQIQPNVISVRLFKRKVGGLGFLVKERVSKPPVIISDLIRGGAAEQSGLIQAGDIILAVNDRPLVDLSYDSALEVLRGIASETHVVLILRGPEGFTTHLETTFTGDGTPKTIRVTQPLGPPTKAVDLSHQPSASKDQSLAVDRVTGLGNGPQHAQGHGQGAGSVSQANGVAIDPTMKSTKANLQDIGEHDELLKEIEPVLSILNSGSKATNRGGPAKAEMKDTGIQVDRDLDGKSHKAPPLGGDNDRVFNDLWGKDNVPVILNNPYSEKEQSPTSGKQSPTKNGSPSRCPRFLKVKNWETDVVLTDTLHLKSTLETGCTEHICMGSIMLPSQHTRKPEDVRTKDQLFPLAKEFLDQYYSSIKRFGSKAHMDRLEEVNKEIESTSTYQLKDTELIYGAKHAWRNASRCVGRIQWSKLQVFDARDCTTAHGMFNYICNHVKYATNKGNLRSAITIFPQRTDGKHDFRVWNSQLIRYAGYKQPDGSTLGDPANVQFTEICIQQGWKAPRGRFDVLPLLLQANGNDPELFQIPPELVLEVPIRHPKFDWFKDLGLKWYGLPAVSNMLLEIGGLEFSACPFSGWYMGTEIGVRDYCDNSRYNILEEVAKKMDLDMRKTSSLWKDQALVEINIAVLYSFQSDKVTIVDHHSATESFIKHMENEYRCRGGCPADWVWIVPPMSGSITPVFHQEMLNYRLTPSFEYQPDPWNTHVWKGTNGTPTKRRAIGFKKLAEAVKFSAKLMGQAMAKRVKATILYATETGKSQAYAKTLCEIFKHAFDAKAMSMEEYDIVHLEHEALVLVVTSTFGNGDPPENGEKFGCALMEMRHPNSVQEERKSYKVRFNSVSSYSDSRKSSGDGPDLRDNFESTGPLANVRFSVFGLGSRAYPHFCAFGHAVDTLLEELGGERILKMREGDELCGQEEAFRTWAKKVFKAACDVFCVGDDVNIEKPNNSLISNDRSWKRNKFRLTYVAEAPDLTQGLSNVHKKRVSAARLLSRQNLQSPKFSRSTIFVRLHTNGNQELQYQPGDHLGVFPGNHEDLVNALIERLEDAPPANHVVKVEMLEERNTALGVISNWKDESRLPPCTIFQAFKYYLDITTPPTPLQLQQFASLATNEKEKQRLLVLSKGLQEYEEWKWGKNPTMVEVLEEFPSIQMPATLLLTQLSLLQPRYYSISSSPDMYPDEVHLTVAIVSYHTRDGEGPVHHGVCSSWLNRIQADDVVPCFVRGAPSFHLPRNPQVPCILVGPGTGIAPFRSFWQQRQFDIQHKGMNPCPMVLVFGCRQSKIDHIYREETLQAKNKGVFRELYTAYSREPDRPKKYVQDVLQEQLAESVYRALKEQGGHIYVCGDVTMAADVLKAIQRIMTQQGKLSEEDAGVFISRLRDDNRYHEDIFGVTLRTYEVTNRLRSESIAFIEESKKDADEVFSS
Chain of Vascular endothelial growth factor receptor 1 (P17948 whole entry): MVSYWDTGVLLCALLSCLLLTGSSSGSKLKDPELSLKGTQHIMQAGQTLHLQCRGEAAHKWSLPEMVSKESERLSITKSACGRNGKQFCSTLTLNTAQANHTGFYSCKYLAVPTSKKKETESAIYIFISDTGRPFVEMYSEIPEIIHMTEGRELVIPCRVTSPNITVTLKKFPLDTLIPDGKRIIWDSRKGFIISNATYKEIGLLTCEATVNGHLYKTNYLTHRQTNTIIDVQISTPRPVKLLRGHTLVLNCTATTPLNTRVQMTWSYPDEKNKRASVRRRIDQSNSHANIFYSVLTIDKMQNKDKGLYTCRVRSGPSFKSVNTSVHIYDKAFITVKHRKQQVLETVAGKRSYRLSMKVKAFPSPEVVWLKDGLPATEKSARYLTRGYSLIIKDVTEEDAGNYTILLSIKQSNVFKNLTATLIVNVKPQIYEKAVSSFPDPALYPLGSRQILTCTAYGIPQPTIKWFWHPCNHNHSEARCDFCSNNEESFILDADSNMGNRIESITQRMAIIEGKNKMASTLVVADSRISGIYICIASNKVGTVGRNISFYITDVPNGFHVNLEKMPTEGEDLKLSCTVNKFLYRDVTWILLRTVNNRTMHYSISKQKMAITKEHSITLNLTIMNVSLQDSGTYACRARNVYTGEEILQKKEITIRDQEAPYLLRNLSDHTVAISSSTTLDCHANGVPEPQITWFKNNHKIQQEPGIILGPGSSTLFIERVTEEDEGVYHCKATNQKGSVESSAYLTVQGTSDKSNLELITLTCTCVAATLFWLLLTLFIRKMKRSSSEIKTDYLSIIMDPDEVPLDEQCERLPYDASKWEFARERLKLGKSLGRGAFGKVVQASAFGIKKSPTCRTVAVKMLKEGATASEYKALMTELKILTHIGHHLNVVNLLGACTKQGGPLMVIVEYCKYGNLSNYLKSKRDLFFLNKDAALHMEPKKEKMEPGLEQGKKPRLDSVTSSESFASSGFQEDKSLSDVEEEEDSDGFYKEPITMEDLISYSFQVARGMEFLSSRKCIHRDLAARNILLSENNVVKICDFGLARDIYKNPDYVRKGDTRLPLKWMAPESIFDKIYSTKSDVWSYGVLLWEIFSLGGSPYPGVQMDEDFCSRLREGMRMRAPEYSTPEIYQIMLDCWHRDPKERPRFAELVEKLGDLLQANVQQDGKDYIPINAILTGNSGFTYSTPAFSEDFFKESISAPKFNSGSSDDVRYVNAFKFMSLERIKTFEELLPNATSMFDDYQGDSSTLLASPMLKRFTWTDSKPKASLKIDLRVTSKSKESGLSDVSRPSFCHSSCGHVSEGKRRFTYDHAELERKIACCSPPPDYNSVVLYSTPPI

O=C1CC[C@H](N2C(=O)c3ccccc3C2=O)C(=O)N1
Not Active: IC50 (Cytochrome P450 3A4) | Ki (Cytochrome P450 3A4) | IC50 [1] | IC50 [2] | IC50 [3] | IC50 (Nitric oxide synthase 1) | IC50 [4] | Ki [4]

CC(=O)Nc1ccc(O)cc1 [ACETAMINOPHEN]
Not Active: IC50 (Cytochrome P450 3A4) | Ki (Cytochrome P450 3A4) | IC50 [1] | IC50 [2] | IC50 [3] | IC50 (Nitric oxide synthase 1) | IC50 [4] | Ki [4]

CCOC(=O)[C@H](CCc1ccccc1)N[C@H]1CCc2ccccc2N(CC(=O)O)C1=O [BENAZEPRIL]
Not Active: IC50 (Cytochrome P450 3A4) | Ki (Cytochrome P450 3A4) | IC50 [1] | IC50 [2] | IC50 [3] | IC50 (Nitric oxide synthase 1) | IC50 [4] | Ki [4]

O=C1CC2(CCCC2)CC(=O)N1CCCCN1CCN(c2ncccn2)CC1 [BUSPIRONE]
Not Active: IC50 [1] | IC50 [2] | IC50 [3] | IC50 (Nitric oxide synthase 1) | IC50 [4] | Ki [4]

ClC(Cl)Cl [CHLOROFORM]
Not Active: IC50 (Cytochrome P450 3A4) | Ki (Cytochrome P450 3A4) | IC50 [1] | IC50 [2] | IC50 [3] | IC50 (Nitric oxide synthase 1) | IC50 [4] | Ki [4]

C[C@@H]1C[C@@H]([C@H](O)CC2CC(=O)NC(=O)C2)C(=O)[C@@H](C)C1 [CYCLOHEXIMIDE]
Not Active: IC50 [1] | IC50 [2] | IC50 [3] | IC50 (Nitric oxide synthase 1) | IC50 [4] | Ki [4]

CC(=O)Nc1c(I)c(NC(C)=O)c(I)c(C(=O)O)c1I [DIATRIZOIC ACID]
Not Active: IC50 (Cytochrome P450 3A4) | Ki (Cytochrome P450 3A4) | IC50 [1] | IC50 [2] | IC50 [3] | IC50 (Nitric oxide synthase 1) | IC50 [4] | Ki [4]

CCN1CC(CCN2CCOCC2)C(c2ccccc2)(c2ccccc2)C1=O (stereo not given) [DOXAPRAM]
Not Active: IC50 (Cytochrome P450 3A4) | Ki (Cytochrome P450 3A4) | IC50 [1] | IC50 [2] | IC50 [3] | IC50 (Nitric oxide synthase 1) | IC50 [4] | Ki [4]

Cn1c(=O)c2c(ncn2CC2OCCO2)n(C)c1=O [DOXOFYLLINE]
Not Active: IC50 (Cytochrome P450 3A4) | Ki (Cytochrome P450 3A4) | IC50 [1] | IC50 [2] | IC50 [3] | IC50 (Nitric oxide synthase 1) | IC50 [4] | Ki [4]

C[C@]12CC[C@@H]3c4ccc(OC(=O)c5ccccc5)cc4CC[C@H]3[C@@H]1CC[C@@H]2O [ESTRADIOL BENZOATE]
Not Active: IC50 (Cytochrome P450 3A4) | Ki (Cytochrome P450 3A4) | IC50 [1] | IC50 [2] | IC50 [3] | IC50 (Nitric oxide synthase 1) | IC50 [4] | Ki [4]

C[C@]12CC[C@@H]3c4ccc(O)cc4CC[C@H]3[C@@H]1CC[C@@H]2O [ESTRADIOL]
Not Active: IC50 (Cytochrome P450 3A4) | Ki (Cytochrome P450 3A4) | IC50 [1] | IC50 [2] | IC50 [3] | IC50 (Nitric oxide synthase 1) | IC50 [4] | Ki [4]

CC[C@@H](CO)NCCN[C@@H](CC)CO [ETHAMBUTOL]
Not Active: IC50 (Cytochrome P450 3A4) | Ki (Cytochrome P450 3A4) | IC50 [1] | IC50 [2] | IC50 [3] | IC50 (Nitric oxide synthase 1) | IC50 [4] | Ki [4]

NC(=O)NO [HYDROXYUREA]
Not Active: IC50 [1] | IC50 [2] | IC50 [3] | IC50 (Nitric oxide synthase 1) | IC50 [4] | Ki [4]

Nc1ccn([C@@H]2CS[C@H](CO)O2)c(=O)n1 [LAMIVUDINE]
Not Active: IC50 (Cytochrome P450 3A4) | Ki (Cytochrome P450 3A4) | IC50 [1] | IC50 [2] | IC50 [3] | IC50 (Nitric oxide synthase 1) | IC50 [4] | Ki [4]

C#C[C@]1(O)CC[C@H]2[C@@H]3CCc4cc(OC)ccc4[C@H]3CC[C@@]21C [MESTRANOL]
Not Active: IC50 (Cytochrome P450 3A4) | Ki (Cytochrome P450 3A4) | IC50 [1] | IC50 [2] | IC50 [3] | IC50 (Nitric oxide synthase 1) | IC50 [4] | Ki [4]

COc1ccc2cc([C@H](C)C(=O)O)ccc2c1 [NAPROXEN]
Not Active: IC50 [1] | IC50 [2] | IC50 [3] | IC50 (Nitric oxide synthase 1) | IC50 [4] | Ki [4]

C#C[C@]1(OC(C)=O)CC[C@H]2[C@@H]3CCC4=CC(=O)CC[C@@H]4[C@H]3CC[C@@]21C [NORETHINDRONE ACETATE]
Not Active: IC50 (Cytochrome P450 3A4) | Ki (Cytochrome P450 3A4) | IC50 [1] | IC50 [2] | IC50 [3] | IC50 (Nitric oxide synthase 1) | IC50 [4] | Ki [4]

O=C(C1CCCCC1)N1CC(=O)N2CCc3ccccc3C2C1 (stereo not given) [PRAZIQUANTEL]
Not Active: IC50 (Cytochrome P450 3A4) | Ki (Cytochrome P450 3A4) | IC50 [1] | IC50 [2] | IC50 [3] | IC50 (Nitric oxide synthase 1) | IC50 [4] | Ki [4]

CCN(CC)CCOC(=O)c1ccc(N)cc1 [PROCAINE]
Not Active: IC50 (Cytochrome P450 3A4) | Ki (Cytochrome P450 3A4) | IC50 [1] | IC50 [2] | IC50 [3] | IC50 (Nitric oxide synthase 1) | IC50 [4] | Ki [4]

CCCN(CCC)C(=O)C(CCC(=O)O)NC(=O)c1ccccc1 (stereo not given) [PROGLUMIDE]
Not Active: IC50 (Cytochrome P450 3A4) | Ki (Cytochrome P450 3A4) | IC50 [1] | IC50 [2] | IC50 [3] | IC50 (Nitric oxide synthase 1) | IC50 [4] | Ki [4]

OC(CCN1CCCCC1)(c1ccccc1)C1CCCCC1 (stereo not given) [TRIHEXYPHENIDYL]
Not Active: IC50 (Cytochrome P450 3A4) | Ki (Cytochrome P450 3A4) | IC50 [1] | IC50 (Estrogen receptor) | IC50 [3] | IC50 (Nitric oxide synthase 1) | IC50 [4] | Ki [4]
